From patent US10689354B2, “Aminoazole derivative” (Teijin Pharma Limited, priority 2015, dated 2020)

What was measured:
[1] = target: T1, androgen receptor (AR-LBD) (Rattus norvegicus, UniProt P15207); experiment: Evaluation of androgen receptor affinity (PolarScreen Androgen Receptor Competitor Assay Kit, Red; fluorescence polarization); conditions: 22° C. for 5 hours, relative to binding rate of 1 μM DHT, read-out: AR affinity (pEC50) (converted)
T1 construct: 5 μL of 2×AR-LBD/Fluoromone AL Red Complex contained in the kit; purchased Invitrogen
T1 sequence (P15207 651-882 limits assumed): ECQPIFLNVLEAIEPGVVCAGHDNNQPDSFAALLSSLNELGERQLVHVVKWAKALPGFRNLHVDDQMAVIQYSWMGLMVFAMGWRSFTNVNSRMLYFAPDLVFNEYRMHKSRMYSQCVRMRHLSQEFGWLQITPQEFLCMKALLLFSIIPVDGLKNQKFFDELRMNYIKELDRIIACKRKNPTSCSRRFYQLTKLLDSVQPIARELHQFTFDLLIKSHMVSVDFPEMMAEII
Summary of the method: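 Test compound and the 2× AR-LBD/Fluoromone AL Red complex were combined in duplicate wells. After reacting 5 h at 22° C, polarization was measured. pEC50 was derived by 4-parameter fitting, normalizing to binding obtained with 1 μM dihydrotestosterone.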

human androgen receptor = target: T2, human androgen receptor (Homo sapiens, UniProt P10275); experiment: Reporter assay of an androgen receptor responsive sequence (luciferase, transiently transfected HEK293 cells); assay type: cell-based; conditions: 24 hours incubation, relative to activity of 100 nM DHT, read-out: AR transcriptive activity (pEC50) (converted)
T2 construct: expressed in transfected cells; host or cells: HEK293
T2 sequence (P10275 1-920): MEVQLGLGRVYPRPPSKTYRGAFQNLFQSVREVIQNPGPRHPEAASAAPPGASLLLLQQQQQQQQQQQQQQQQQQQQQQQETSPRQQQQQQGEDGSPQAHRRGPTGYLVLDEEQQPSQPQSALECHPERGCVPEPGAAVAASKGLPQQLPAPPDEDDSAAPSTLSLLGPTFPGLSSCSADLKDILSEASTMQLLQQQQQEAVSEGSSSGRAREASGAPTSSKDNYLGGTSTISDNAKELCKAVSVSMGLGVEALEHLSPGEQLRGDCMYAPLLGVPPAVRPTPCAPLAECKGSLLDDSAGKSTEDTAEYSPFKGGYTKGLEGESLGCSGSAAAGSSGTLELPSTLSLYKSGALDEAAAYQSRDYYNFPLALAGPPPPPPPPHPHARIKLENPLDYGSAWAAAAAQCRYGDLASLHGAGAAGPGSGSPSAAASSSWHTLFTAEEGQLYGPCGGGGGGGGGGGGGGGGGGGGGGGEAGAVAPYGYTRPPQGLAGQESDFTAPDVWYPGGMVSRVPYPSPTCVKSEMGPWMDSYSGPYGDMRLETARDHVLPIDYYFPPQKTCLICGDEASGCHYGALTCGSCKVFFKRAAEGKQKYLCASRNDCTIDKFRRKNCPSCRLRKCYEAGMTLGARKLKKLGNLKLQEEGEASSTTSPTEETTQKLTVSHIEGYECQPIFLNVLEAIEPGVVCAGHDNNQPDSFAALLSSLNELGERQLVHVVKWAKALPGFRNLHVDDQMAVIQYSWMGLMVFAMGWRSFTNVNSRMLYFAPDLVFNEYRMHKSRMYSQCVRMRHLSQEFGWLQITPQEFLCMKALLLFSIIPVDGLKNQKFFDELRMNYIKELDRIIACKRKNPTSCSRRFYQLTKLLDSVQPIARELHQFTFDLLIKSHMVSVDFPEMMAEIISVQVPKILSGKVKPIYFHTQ
Procedure: Reporter Assay of an Androgen Receptor Responsive Sequence
To examine the agonist activity of compounds for androgen, a reporter assay using an androgen receptor responsive sequence was conducted.
Using Lipofectamine 2000 (Invitrogen), a plasmid mixture (pGL4-ARE (200 ng/well), pcDNA3-hAR (20 ng/well), pRL-TK (Promega) (150 ng/well)) was transiently transfected into HEK293 cells. The contents of the plasmid (mixture) are as follows:
pGL4-ARE is a reporter plasmid containing firefly luciferase sequence under the control of androgen receptor responsive sequence; pcDNA3-hAR is a plasmid containing full-length sequence of human androgen receptor under the constant control of CMV promoter; pRL-TK is a plasmid containing Renilla Luciferase sequence under the control of herpes simplex virus thymidine kinase and used as an internal standard for evaluations of transfection efficiency and compound toxicity.
After the incubation of Lipofectamine 2000 and the plasmid mixture in Opti-MEM for 20 minutes, the mixture was mixed with a cell suspension prepared with Opti-MEM in the similar way, and the cell suspension was plated to a 96-well plate at 20000 cells/well. The transfection was conducted by incubating the plates under the condition of 5% CO2 at 37° C. for 3 hours. Three hours after the transfection, the culture medium was removed and a compound solution prepared by DMEM supplemented with 5% FBS and treated with charcoal was added, and the mixture was incubated under the condition of 5% CO2 at 37° C. for 24 hours. After the incubation with the compound, luciferase activities were measured with a luminometer using Dual-Glo™ Luciferase Assay System (Promega). The measurement of the luciferase activities was performed in accordance with the protocol recommended by Promega. The activity of the compound was determined by comparing to the activity of 100 nM of DHT, and quantified the logarithm value (pEC50) of reciprocal value of the effective concentration of the compound which is equal to 50% of the activity value by applying a 4 parameter goodness-of-fit calculation.

| EC50 [1] | EC50 (human androgen receptor) | Compound |
| --- | --- | --- |
| 0.0316 µM | 0.0316 µM | Cc1sc(N(Cc2ccc(C(F)(F)F)cc2)c2ccc(C#N)cc2)nc1C(=O)NS(C)(=O)=O [Compound 46, 2-[4-cyano-N-[[4-(trifluoromethyl)phenyl]methyl]anilino]-5-methyl-N-methylsulfonyl-thiazole-4-carboxamide] |
| 0.0794 µM | 0.0501 µM | Cc1sc(N(Cc2ccc3ncsc3c2)c2ccc(C#N)cc2)nc1C(=O)NS(C)(=O)=O [Compound 50, 2-[N-(1,3-benzothiazol-6-ylmethyl)-4-cyano-anilino]-5-methyl-N-methylsulfonyl-thiazole-4-carboxamide] |
| 0.0501 µM | 0.0316 µM | Cc1sc(N(Cc2cc3ccccc3s2)c2ccc(C#N)cc2)nc1C(=O)NS(C)(=O)=O [Compound 51, 2-[N-(benzothiophen-2-ylmethyl)-4-cyano-anilino]-5-methyl-N-methylsulfonyl-thiazole-4-carboxamide] |
| 0.398 µM | 2.51 µM | Cc1sc(N(CCc2ccccc2)c2ccc(C#N)cc2)nc1C(=O)NS(C)(=O)=O [Compound 52, 2-[4-cyano-N-(2-phenylethyl)anilino]-5-methyl-N-methylsulfonyl-thiazole-4-carboxamide] |
| 0.398 µM | 1.58 µM | Cc1sc(N(Cc2ccccc2)c2ccc3ncccc3c2)nc1C(=O)NS(C)(=O)=O [Compound 54, 2-[benzyl(6-quinolyl)amino]-5-methyl-N-methylsulfonyl-thiazole-4-carboxamide] |
| 0.0631 µM | 6.31 µM | Cc1sc(N(Cc2ccccc2SC(F)(F)F)c2ccc(C#N)cc2)nc1C(=O)NS(C)(=O)=O [Compound 56, 2-[4-cyano-N-[[2-(trifluoromethylsulfanyl)phenyl]methyl]anilino]-5-methyl-N-methylsulfonyl-thiazole-4-carboxamide] |
| 0.0316 µM | 0.316 µM | Cc1sc(N(Cc2cccc(SC(F)(F)F)c2)c2ccc(C#N)cc2)nc1C(=O)NS(C)(=O)=O [Compound 57, 2-[4-cyano-N-[[3-(trifluoromethylsulfanyl)phenyl]methyl]anilino]-5-methyl-N-methylsulfonyl-thiazole-4-carboxamide] |
| 0.0316 µM | > 10 µM | Cc1sc(N(Cc2cccc(OCc3ccccc3)c2)c2ccc(C#N)cc2)nc1C(=O)NS(C)(=O)=O [Compound 59, 2-[N-[(3-benzyloxyphenyl)methyl]-4-cyano-anilino]-5-methyl-N-methylsulfonyl-thiazole-4-carboxamide] |
| 0.501 µM | 3.16 µM | Cc1sc(N(Cc2ccccc2)c2ccc(-n3cncn3)cc2)nc1C(=O)NS(C)(=O)=O [Compound 61, 2-[N-benzyl-4-(1,2,4-triazol-1-yl)anilino]-5-methyl-N-methylsulfonyl-thiazole-4-carboxamide] |
| 0.251 µM | 2.51 µM | CCCCN(c1ccc(C#N)cc1)c1nc(C(=O)NS(C)(=O)=O)c(C)s1 [Compound 64, 2-(N-butyl-4-cyano-anilino)-5-methyl-N-methylsulfonyl-thiazole-4-carboxamide] |
| 0.126 µM | > 10 µM | CCC(CC)CN(c1ccc(C#N)cc1)c1nc(C(=O)NS(C)(=O)=O)c(C)s1 [Compound 65, 2-[4-cyano-N-(2-ethylbutyl)anilino]-5-methyl-N-methylsulfonyl-thiazole-4-carboxamide] |
| 0.0794 µM | 0.794 µM | Cc1sc(N(CCC(C)C)c2ccc(C#N)cc2)nc1C(=O)NS(C)(=O)=O [Compound 66, 2-(4-cyano-N-isopentyl-anilino)-5-methyl-N-methylsulfonyl-thiazole-4-carboxamide] |
| 0.0501 µM | 0.794 µM | Cc1sc(N(Cc2cccc3ccccc23)c2ccc(C#N)cc2)nc1C(=O)NS(C)(=O)=O [Compound 68, 2-[4-cyano-N-(1-naphthylmethyl)anilino]-5-methyl-N-methylsulfonyl-thiazole-4-carboxamide] |
| 0.0251 µM | 1.26 µM | Cc1sc(N(Cc2ccccc2)c2ccc(C#N)cc2)nc1C(=O)NS(=O)(=O)C(F)F [Compound 69, 2-(N-benzyl-4-cyano-anilino)-N-(difluoromethylsulfonyl)-5-methyl-thiazole-4-carboxamide] |
| 0.0316 µM | 0.0631 µM | Cc1sc(N(Cc2ccc(Cl)cc2F)c2ccc(C#N)cc2)nc1C(=O)NS(C)(=O)=O [Compound 70, 2-[N-[(4-chloro-2-fluoro-phenyl)methyl]-4-cyano-anilino]-5-methyl-N-methylsulfonyl-thiazole-4-carboxamide] |
| 0.0316 µM | 0.398 µM | CCCCCCN(c1ccc(C#N)cc1)c1nc(C(=O)NS(C)(=O)=O)c(C)s1 [Compound 75, 2-(4-cyano-N-hexyl-anilino)-5-methyl-N-methylsulfonyl-thiazole-4-carboxamide] |
| 0.0501 µM | > 10 µM | Cc1sc(N(CC23CC4CC(CC(C4)C2)C3)c2ccc(C#N)cc2)nc1C(=O)NS(C)(=O)=O [Compound 76, 2-[N-(1-adamantylmethyl)-4-cyano-anilino]-5-methyl-N-methylsulfonyl-thiazole-4-carboxamide] |
| 0.0501 µM | 0.631 µM | Cc1sc(N(Cc2cccs2)c2ccc(C#N)cc2)nc1C(=O)NS(C)(=O)=O [Compound 77, 2-[4-cyano-N-(2-thienylmethyl)anilino]-5-methyl-N-methylsulfonyl-thiazole-4-carboxamide] |
| 0.0251 µM | 0.158 µM | Cc1sc(N(CCC2CCCC2)c2ccc(C#N)cc2)nc1C(=O)NS(C)(=O)=O [Compound 78, 2-[4-cyano-N-(2-cyclopentylethyl)anilino]-5-methyl-N-methylsulfonyl-thiazole-4-carboxamide] |
| 0.0158 µM | 0.0501 µM | Cc1sc(N(Cc2ccccc2SC(F)F)c2ccc(C#N)cc2)nc1C(=O)NS(C)(=O)=O [Compound 79, 2-[4-cyano-N-[[2-(difluoromethylsulfanyl)phenyl]methyl]anilino]-5-methyl-N-methylsulfonyl-thiazole-4-carboxamide] |
| 0.316 µM | > 10 µM | Cc1sc(N(CCc2ccccc2F)c2ccc(C#N)cc2)nc1C(=O)NS(C)(=O)=O [Compound 80, 2-[4-cyano-N-[2-(2-fluorophenyl)ethyl]anilino]-5-methyl-N-methylsulfonyl-thiazole-4-carboxamide] |
| 0.158 µM | 1.58 µM | Cc1sc(N(CCc2ccc(F)cc2)c2ccc(C#N)cc2)nc1C(=O)NS(C)(=O)=O [Compound 81, 2-[4-cyano-N-[2-(4-fluorophenyl)ethyl]anilino]-5-methyl-N-methylsulfonyl-thiazole-4-carboxamide] |
